Reference: patent publication US20120302577A1 (AB SCIENCE, priority 2010, published 2012)
Counter-ions that a name gives are not always drawn.

Assays:
[1] = system: patients with GIST; settings: initial dose 400 mg/day, 345 patients; cited from earlier work
[2] = system: patients with advanced GIST; settings: cited from earlier work
[3] = system: patients with advanced GIST; assay: Phase 2 clinical trial, safety assessment (adverse events, NCI CTCAE v3.0); assay type: in vivo, human; settings: for Abdominal Pain / Abdominal Pain Upper / Anaemia / Asthenia / Diarrhoea / Dry Skin / Erythema / Eye Oedema / Eyelid Oedema / Lacrimation Increased / Mucosal Inflammation / Muscle Spasms / Myalgia / Nausea / Neutropenia / Oedema Peripheral / Pruritus / Rash / Vomiting: N = 30
Description: Methods; Patients: Patients enrolled in this study were aged over 18 years with inoperable, non-pretreated, histologically proven locally advanced or metastatic, c-Kit positive GIST. […] Exclusion criteria included: inadequate organ function defined via blood tests, severe liver or cardiac failure, and severe neurological or psychiatric disorders. Patients receiving a concomitant treatment within 4 weeks before inclusion, and pregnant or lactating women were also excluded. […] All adverse events (AEs), including abnormal serology or haematology, were recorded regardless of causality.

[4] = system: patients with advanced GIST; assay: Phase 2 clinical trial, metabolic response (FDG-PET); assay type: in vivo, human; settings: At 1 month (N = 13)
Description: Methods; Patients: Patients enrolled in this study were aged over 18 years with inoperable, non-pretreated, histologically proven locally advanced or metastatic, c-Kit positive GIST. […] Exclusion criteria included: inadequate organ function defined via blood tests, severe liver or cardiac failure, and severe neurological or psychiatric disorders. Patients receiving a concomitant treatment within 4 weeks before inclusion, and pregnant or lactating women were also excluded.

[5] = system: patients with advanced GIST; assay: Phase 2 clinical trial, time-to-event analysis (PFS, OS); assay type: in vivo, human
Description: Methods; Patients: Patients enrolled in this study were aged over 18 years with inoperable, non-pretreated, histologically proven locally advanced or metastatic, c-Kit positive GIST. […] Exclusion criteria included: inadequate organ function defined via blood tests, severe liver or cardiac failure, and severe neurological or psychiatric disorders. Patients receiving a concomitant treatment within 4 weeks before inclusion, and pregnant or lactating women were also excluded. […] Time-to-event analyses were calculated from the date of first masitinib intake to the date of event (documented progression or death). Patients who had not progressed at the date of last tumor assessment were censored at that date for PFS. Patients alive at the time of the analysis were censored at the date of last contact for OS. Methods; Statistical analyses: Simon […] two-stage design was used for this prospective, multicenter, single-group, phase II trial. Fourteen patients were initially enrolled, with recruitment of an additional ten patients being dependent on the occurrence of at least one objective RECIST response. This population was further extended to a total of 30 patients to ensure a sufficient evaluable population for all end-points; the type I(α) error was 5% (two-sided) for all analyses. Quantitative variables were described by the number of filled and missing data, mean, standard deviation, median, minimum and maximum. Qualitative variables were described by the number of missing data and, for each modality, frequency and percentage (referring to filled data). Time-to-event data were described using Kaplan-Meier (KM) estimates. The median was provided with its 95% confidence interval (95% CI). PFS rates were given every 6 months with KM estimates. All data analyses and reporting procedures used SAS v9.1 in a Windows XP operating system environment.

[6] = system: patients with advanced GIST; assay: Phase 2 clinical trial, response rate according to RECIST (CT); assay type: in vivo, human; settings: 2 months (N = 30)
Description: Methods; Patients: Patients enrolled in this study were aged over 18 years with inoperable, non-pretreated, histologically proven locally advanced or metastatic, c-Kit positive GIST. […] Exclusion criteria included: inadequate organ function defined via blood tests, severe liver or cardiac failure, and severe neurological or psychiatric disorders. Patients receiving a concomitant treatment within 4 weeks before inclusion, and pregnant or lactating women were also excluded. […] Methods; Statistical analyses: Simon […] two-stage design was used for this prospective, multicenter, single-group, phase II trial. Fourteen patients were initially enrolled, with recruitment of an additional ten patients being dependent on the occurrence of at least one objective RECIST response. This population was further extended to a total of 30 patients to ensure a sufficient evaluable population for all end-points; the type I(α) error was 5% (two-sided) for all analyses. Quantitative variables were described by the number of filled and missing data, mean, standard deviation, median, minimum and maximum. Qualitative variables were described by the number of missing data and, for each modality, frequency and percentage (referring to filled data). Time-to-event data were described using Kaplan-Meier (KM) estimates. The median was provided with its 95% confidence interval (95% CI). […]

[7] = system: patients with advanced GIST; settings: after 2 months of masitinib; cited from earlier work
[8] = system: imatinib-resistant HMC-1α155 cells; assay: Apoptosis assay by Propidium Iodide staining on imatinib-resistant cells; assay type: cell-based, human; settings: imatinib-resistant HMC-1α155 cells exposed to 1 μM
Method: HMC-1 is a human mast cell line derived from a patient with mast cell leukaemia. The cell line used in this study, HMC-1α155, is a clone derived from the original population expressing endogenous Kit bearing the mutation Val 560 to Gly. […] The medium used in this case was a RPMI medium containing L-glutamine (Cambrex cat#12-702F) supplemented with 100 U/mL penicillin and 100 μg/mL streptomycin (Cambrex 100× penicilline/streptomycine mixture cat #17-602E), and with 10% v/v foetal calf serum (AbCys Lot S02823S1800) which has been previously heat-inactivated 30 minutes at 56° C. (RPMI 10). The medium containing the drugs was replaced with fresh one every 3-4 days. […] The principle behind the method for apoptosis assay by Propidium Iodide Staining (PI staining) is as follows: during apoptosis, DNA breakup causes small fragments of DNA to be free in the nucleus. Following appropriate elution with citrate buffer, these fragments are lost from the nucleus. As these cells now have a lower DNA content, subsequent staining with a DNA binding dye will reveal these cells in the sub-G1 region.

Cc1ccc(NC(=O)c2ccc(CN3CCN(C)CC3)cc2)cc1Nc1nccc(-c2cccnc2)n1 [imatinib]
2-year PFS rate [1]: 46%
2-year survival [1]: 72%
3-year survival [1]: ~61%
Median PFS [1]: 18 months
Median overall survival (OS) [1]: 55 months
2-year survival rate of patients with advanced GIST ([2]; after introduction of imatinib (pre-imatinib 25%)): about 70%
Patients with early resistance (progression within first 6 months, no response) ([2]; in vivo): 10-15%

Cc1ccc(NC(=O)c2ccc(CN3CCN(C)CC3)cc2)cc1Nc1nc(-c2cccnc2)cs1 [masitinib, 4-(4-methylpiperazin-1-ylmethyl)-N-[4-methyl-3-(4-pyridin-3-ylthiazol-2-ylamino)phenyl]benzamide-mesylate methane sulfonic acid salt]
Abdominal Pain ([3]; All causalities, All grades): 16 (53.3%) Number (%) of patients
Abdominal Pain Upper ([3]; All causalities, All grades): 9 (30.0%) Number (%) of patients
Anaemia ([3]; All causalities, All grades): 6 (20.0%) Number (%) of patients
Asthenia ([3]; All causalities, All grades): 27 (90.0%) Number (%) of patients
Diarrhoea ([3]; All causalities, All grades): 18 (60.0%) Number (%) of patients
Dry Skin ([3]; All causalities, All grades): 4 (13.3%) Number (%) of patients
Erythema ([3]; All causalities, All grades): 6 (20.0%) Number (%) of patients
Eye Oedema ([3]; All causalities, All grades): 14 (46.7%) Number (%) of patients
Eyelid Oedema ([3]; All causalities, All grades): 7 (23.3%) Number (%) of patients
Lacrimation Increased ([3]; All causalities, All grades): 4 (13.3%) Number (%) of patients
Mucosal Inflammation ([3]; All causalities, All grades): 5 (16.7%) Number (%) of patients
Muscle Spasms ([3]; All causalities, All grades): 12 (40.0%) Number (%) of patients
Myalgia ([3]; All causalities, All grades): 4 (13.3%) Number (%) of patients
Nausea ([3]; All causalities, All grades): 15 (50.0%) Number (%) of patients
Neutropenia ([3]; All causalities, All grades): 5 (16.7%) Number (%) of patients
Oedema Peripheral ([3]; All causalities, All grades): 8 (26.7%) Number (%) of patients
Pruritus ([3]; All causalities, All grades): 11 (36.7%) Number (%) of patients
Rash ([3]; All causalities, All grades): 12 (40.0%) Number (%) of patients
Vomiting ([3]; All causalities, All grades): 10 (33.3%) Number (%) of patients
Abdominal Pain ([3]; All causalities, G3 + G4): 2 (6.7%) Number (%) of patients
Anaemia ([3]; All causalities, G3 + G4): 1 (3.3%) Number (%) of patients
Asthenia ([3]; All causalities, G3 + G4): 1 (3.3%) Number (%) of patients
Diarrhoea ([3]; All causalities, G3 + G4): 1 (3.3%) Number (%) of patients
Eye Oedema ([3]; All causalities, G3 + G4): 1 (3.3%) Number (%) of patients
Mucosal Inflammation ([3]; All causalities, G3 + G4): 1 (3.3%) Number (%) of patients
Neutropenia ([3]; All causalities, G3 + G4): 2 (6.7%) Number (%) of patients
Pruritus ([3]; All causalities, G3 + G4): 1 (3.3%) Number (%) of patients
Rash ([3]; All causalities, G3 + G4): 3 (10.0%) Number (%) of patients
Patients reporting at least one treatment-related AE ([3]; ITT N = 30): All patients
Treatment-related toxicity per patient: abdominal pain ([3]; ITT N = 30): 33%
Treatment-related toxicity per patient: asthenia ([3]; ITT N = 30): 83%
Treatment-related toxicity per patient: cutaneous rash ([3]; ITT N = 30): 40%
Treatment-related toxicity per patient: diarrhoea ([3]; ITT N = 30): 57%
Treatment-related toxicity per patient: eye oedema ([3]; ITT N = 30): 47%
Treatment-related toxicity per patient: muscle spasms ([3]; ITT N = 30): 40%
Treatment-related toxicity per patient: nausea ([3]; ITT N = 30): 47%
Treatment-related toxicity per patient: peripheral oedema ([3]; ITT N = 30): 20%
Treatment-related toxicity per patient: pruritus ([3]; ITT N = 30): 33%
Treatment-related toxicity per patient: upper abdominal pain ([3]; ITT N = 30): 23%
Treatment-related toxicity per patient: vomiting ([3]; ITT N = 30): 23%
Abdominal Pain ([3]; Suspected, All grades): 10 (33.3%) Number (%) of patients
Abdominal Pain Upper ([3]; Suspected, All grades): 7 (23.3%) Number (%) of patients
Anaemia ([3]; Suspected, All grades): 4 (13.3%) Number (%) of patients
Asthenia ([3]; Suspected, All grades): 25 (83.3%) Number (%) of patients
Diarrhoea ([3]; Suspected, All grades): 17 (56.7%) Number (%) of patients
Dry Skin ([3]; Suspected, All grades): 4 (13.3%) Number (%) of patients
Erythema ([3]; Suspected, All grades): 5 (16.7%) Number (%) of patients
Eye Oedema ([3]; Suspected, All grades): 14 (46.7%) Number (%) of patients
Eyelid Oedema ([3]; Suspected, All grades): 7 (23.3%) Number (%) of patients
Lacrimation Increased ([3]; Suspected, All grades): 4 (13.3%) Number (%) of patients
Mucosal Inflammation ([3]; Suspected, All grades): 5 (16.7%) Number (%) of patients
Muscle Spasms ([3]; Suspected, All grades): 12 (40.0%) Number (%) of patients
Myalgia ([3]; Suspected, All grades): 4 (13.3%) Number (%) of patients
Nausea ([3]; Suspected, All grades): 14 (46.7%) Number (%) of patients
Neutropenia ([3]; Suspected, All grades): 5 (16.7%) Number (%) of patients
Oedema Peripheral ([3]; Suspected, All grades): 6 (20.0%) Number (%) of patients
Pruritus ([3]; Suspected, All grades): 10 (33.3%) Number (%) of patients
Rash ([3]; Suspected, All grades): 12 (40.0%) Number (%) of patients
Vomiting ([3]; Suspected, All grades): 7 (23.3%) Number (%) of patients
Abdominal Pain ([3]; Suspected, G3 + G4): 1 (3.3%) Number (%) of patients
Anaemia ([3]; Suspected, G3 + G4): 1 (3.3%) Number (%) of patients
Asthenia ([3]; Suspected, G3 + G4): 1 (3.3%) Number (%) of patients
Diarrhoea ([3]; Suspected, G3 + G4): 1 (3.3%) Number (%) of patients
Eye Oedema ([3]; Suspected, G3 + G4): 1 (3.3%) Number (%) of patients
Mucosal Inflammation ([3]; Suspected, G3 + G4): 1 (3.3%) Number (%) of patients
Neutropenia ([3]; Suspected, G3 + G4): 2 (6.7%) Number (%) of patients
Pruritus ([3]; Suspected, G3 + G4): 1 (3.3%) Number (%) of patients
Rash ([3]; Suspected, G3 + G4): 3 (10.0%) Number (%) of patients
Cardiac side-effects ([3]; to date): no cardiac side-effects have been observed
Metabolic response CMR + PMR (metabolic response rate), % [4]: (69.2%)
Metabolic response CMR, % [4]: (0.0%)
OS rates (%) [95% CI] ([5]; 12 months): 96.7%
PFS rate (%) [95% CI] ([5]; 24 months): 60%
PFS rate (%) [95% CI] ([5]; 36 months): 55%
Response (RECIST) CR + PR + SD (disease control rate), % [6]: (96.7%) [82.8; 99.9]
Response (RECIST) CR, % ([6]; 7.5 mg/kg/day oral): (0.0%)
Patients with tumour response assessed with DCE-US [7]: 75%
% apoptosis (cells in apoptosis with respect to overall cells) [8]: More than 45%
